Experimental data published in patent publication US11236047B2 (ASTEX THERAPEUTICS LIMITED, priority 2017, dated 2022).

system: SN40R2 cells; experiment: Protocol B: SN40R2 CellTiter-Glo luminescent cell viability assay; conditions: 72 h, read-out: SN40R2 IC50 (μM) (Protocol B)
Experimental: Protocol B: SJSA-1 and SN40R2 Assays
(§1) The CellTiter-Glo® Luminescent Cell Viability Assay is a homogeneous method to determine the number of viable cells in culture based on quantitation of the ATP present, which signals the presence of metabolically active cells. […] 100 μl of CTG reagent (Promega #G7573) was added to all wells and luminescence was measured on the topcount. The EC50 values were determined from a sigmoidal 4 parameter curve fit using XLfit in conjunction with Activity Base (IDBS; Guildford, Surrey, UK).

In the case of CN1CCN(CC(C)(O)c2cc(F)c3c(c2)C(=O)N(Cc2ccc(Cl)cc2S(C)(=O)=O)[C@@]3(OC2CCOC2)c2ccc(Cl)cc2)CC1 (single isomer, unassigned) [Example 67], the IC50 is reported as 9.4 µM.

same assay, conditions: read-out: SN40R2 % inhibition at 10

Point of comparison: CC[C@@](O)(c1cc(F)c2c(c1)C(=O)N(Cc1ncc(Cl)cn1)[C@@]2(OC)c1ccc(Cl)cc1)C1CCN(CCO)CC1 (single isomer, unassigned) [Example 550], inhibition at 10 µM 33%. Against it:
- C=CC(O)(c1cc(F)c2c(c1)C(=O)N(Cc1ccc(C#N)cn1)[C@@]2(O[C@H]1C[C@@H](O)C1)c1ccc(Cl)cc1)c1cnn(C)c1 (single isomer, unassigned) [Example 361] — lower, 8%
- CC(=O)N1CCC(C(C)(O)c2cc(F)c3c(c2)C(=O)N(Cc2ncc(Cl)cn2)[C@@]3(O[C@H]2C[C@@H](O)C2)c2ccc(Cl)cc2)CC1 (single isomer, unassigned) [Example 425] — lower, 7%
- CO[C@]1(c2ccc(Cl)cc2)c2c(F)cc(C(C)(O)C3CCN(CC(=O)O)CC3)cc2C(=O)N1Cc1ccc(Cl)cn1 (single isomer, unassigned) [Example 459] — lower, 7%
- CCC(O)(CN1CCNCC1)c1cc(F)c2c(c1)C(=O)N(Cc1ncc(Cl)cn1)[C@@]2(O[C@H]1CCOC1)c1ccc(Cl)cc1 (single isomer, unassigned) [Example 524] — higher, 35%
- CCC(O)(CN1CC[C@@H](O)C1)c1cc(F)c2c(c1)C(=O)N(Cc1ncc(Cl)cn1)[C@@]2(O[C@H]1CCOC1)c1ccc(Cl)cc1 (single isomer, unassigned) [Example 526] — lower, 9%
- CCC(O)(c1cc(F)c2c(c1)C(=O)N(Cc1ccc(C#N)cn1)[C@@]2(O[C@H]1C[C@@H](O)C1)c1ccc(Cl)cc1)c1cnn(C)c1 (stereo partly drawn) [Example 339, 6-{[(1R)-1-(4-chlorophenyl)-7-fluoro-5-[1-hydroxy-1-(1-methyl-1H-pyrazol-4-yl)propyl]-3-oxo-1-[cis-3-hydroxycyclobutoxy]-2,3-dihydro-1H-isoindol-2-yl]methyl}pyridine-3-carbonitrile] — lower, 3%
- CCC(O)(c1cc(F)c2c(c1)C(=O)N(Cc1ccc(C#N)cn1)[C@@]2(OCCO)c1ccc(Cl)cc1)c1cn(C)cn1 (stereo partly drawn) [Example 364, 6-{[(1R)-1-(4-chlorophenyl)-7-fluoro-5-[1-hydroxy-1-(1-methyl-1H-imidazol-4-yl)propyl]-1-(2-hydroxyethoxy)-3-oxo-2,3-dihydro-1H-isoindol-2-yl]methyl}pyridine-3-carbonitrile] — lower, 9%
- CCC(O)(c1cc(F)c2c(c1)C(=O)N(Cc1ccc(C#N)cn1)[C@@]2(O[C@H]1CCOC1)c1ccc(Cl)cc1)c1ccn(C)c(=O)c1 (stereo partly drawn) [Example 374, 6-{[(1R)-1-(4-chlorophenyl)-7-fluoro-5-[1-hydroxy-1-(1-methyl-2-oxo-1,2-dihydropyridin-4-yl)propyl]-3-oxo-1-[(3S)-oxolan-3-yloxy]-2,3-dihydro-1H-isoindol-2-yl]methyl}pyridine-3-carbonitrile] — lower, 2%
- CC(O)(c1cc(F)c2c(c1)C(=O)N(Cc1ccc(C#N)cn1)[C@@]2(O[C@H]1CCOC1)c1ccc(Cl)cc1)C1(F)CCOCC1 (stereo partly drawn) [Example 388, 6-{[(1R)-1-(4-chlorophenyl)-7-fluoro-5-[1-(4-fluorooxan-4-yl)-1-hydroxyethyl]-3-oxo-1-[(3S)-oxolan-3-yloxy]-2,3-dihydro-1H-isoindol-2-yl]methyl}pyridine-3-carbonitrile] — lower, 4%

same assay, conditions: read-out: SN40R2 % inhibition at 10, Protocol B, SN40R2, at 10 μM

Point of comparison: CCC(O)(c1cc(F)c2c(c1)C(=O)N(Cc1ncc(C#N)cn1)[C@@]2(O[C@H]1CCOC1)c1ccc(Cl)cc1)c1ccn(C)n1 (single isomer, unassigned) [Example 489], inhibition at 10 µM -9%. Against it:
- CCC(O)(c1cc(F)c2c(c1)C(=O)N(Cc1ncc(Cl)cn1)[C@@]2(OC[C@@H](C)O)c1ccc(Cl)cc1)C1(F)CCN(C)CC1 (single isomer, unassigned) [Example 572] — higher, 23%

same assay, conditions: read-out: SN40R2 IC50 (μM) (Protocol B)

Point of comparison: COc1nc(C)ccc1CN1C(=O)c2cc(C(C)(C)O)cc(F)c2[C@]1(OC)c1ccc(Cl)cc1 [Example 315, (3R)-3-(4-chlorophenyl)-4-fluoro-6-(2-hydroxypropan-2-yl)-3-methoxy-2-[(2-methoxy-6-methylpyridin-3-yl)methyl]-2,3-dihydro-1H-isoindol-1-one], IC50 13 µM. Against it:
- CO[C@]1(c2ccc(Cl)cc2)c2c(F)cc(C(C)(O)C3CCN(c4ncccn4)CC3)cc2C(=O)N1Cc1ccc(Cl)cn1 (single isomer, unassigned) [Example 286] — within 1.5-fold, 12 µM
- CN1CCC(C(C)(O)c2cc(F)c3c(c2)C(=O)N(Cc2ccc(Cl)cn2)[C@@]3(OCC2(C(N)=O)CC2)c2ccc(Cl)cc2)CC1 (single isomer, unassigned) [Example 306] — the same, 13 µM
- CO[C@]1(c2ccc(Cl)cc2)c2ccc(C(C)(O)CN3CCN(C)CC3)cc2C(=O)N1Cc1ccc(Cl)cn1 (stereo partly drawn) [Example 255, (3R)-3-(4-chlorophenyl)-2-[(5-chloropyridin-2-yl)methyl]-6-[2-hydroxy-1-(4-methylpiperazin-1-yl)propan-2-yl]-3-methoxy-2,3-dihydro-1H-isoindol-1-one] — 1.8-fold lower, 7.1 µM
- CO[C@]1(c2ccc(Cl)cc2)c2c(F)cc(C(C)(O)C3CCN(C)CC3)cc2C(=O)N1Cc1ccc(Cl)cn1 (stereo partly drawn) [Example 304, (3R)-3-(4-chlorophenyl)-2-[(5-chloropyridin-2-yl)methyl]-4-fluoro-6-[1-hydroxy-1-(1-methylpiperidin-4-yl)ethyl]-3-methoxy-2,3-dihydro-1H-isoindol-1-one] — within 1.5-fold, 9 µM

system: SJSA-1 cells; experiment: Protocol B: SJSA-1 CellTiter-Glo luminescent cell viability assay; conditions: Homo sapiens, SJSA-1, read-out: SJSA1 IC50 (μM) (Protocol B), SJSA-1, Protocol B
Experimental: Protocol B: SJSA-1 and SN40R2 Assays
as §1

Point of comparison: Cn1cc(C(C)(O)c2cc(F)c3c(c2)C(=O)N(Cc2ccc(Cl)c[n+]2[O-])[C@@]3(OCC2(O)CC2)c2ccc(Cl)cc2)cn1 (stereo partly drawn) [Example 409, (3R)-2-[(5-chloro-1-oxo-1λ^5-pyridin-2-yl)methyl]-3-(4-chlorophenyl)-4-fluoro-6-[1-hydroxy-1-(1-methyl-1H-pyrazol-4-yl)ethyl]-3-[(1-hydroxycyclopropyl)methoxy]-2,3-dihydro-1H-isoindol-1-one], IC50 0.41 µM. Against it:
- CO[C@]1(c2ccc(Cl)cc2)c2c(F)cc(C(C)(O)C3CN(C(=O)CO)C3)cc2C(=O)N1Cc1ccc(Cl)cn1 (stereo partly drawn) [Example 391, (3R)-3-(4-chlorophenyl)-2-[(5-chloropyridin-2-yl)methyl]-4-fluoro-6-{1-hydroxy-1-[1-(2-hydroxyacetyl)azetidin-3-yl]ethyl}-3-methoxy-2,3-dihydro-1H-isoindol-1-one] — 1.6-fold higher, 0.66 µM
- CC(C)(O)c1cc(F)c2c(c1)C(=O)N([C@@H](CO)c1ccc(Cl)cn1)[C@@]2(OCC1(CO)CC1)c1ccc(Cl)cc1 [Example 418, (3R)-3-(4-Chlorophenyl)-2-[(1R)-1-(5-chloropyridin-2-yl)-2-hydroxyethyl]-4-fluoro-3-{[1-(hydroxymethyl)cyclopropyl]methoxy}-6-(2-hydroxypropan-2-yl)-2,3-dihydro-1H-isoindol-1-one] — within 1.5-fold, 0.28 µM

same assay, conditions: Homo sapiens, SJSA-1, read-out: SJSA1 IC50 (μM), Protocol B, SJSA-1

Point of comparison: CCC(O)(c1cc(F)c2c(c1)C(=O)N(Cc1ccc(Cl)nc1)[C@@]2(OCCO)c1ccc(Cl)cc1)c1cn(C)cn1 (stereo partly drawn) [Example 367, (3R)-3-(4-chlorophenyl)-2-[(6-chloropyridin-3-yl)methyl]-4-fluoro-6-[1-hydroxy-1-(1-methyl-1H-imidazol-4-yl)propyl]-3-(2-hydroxyethoxy)-2,3-dihydro-1H-isoindol-1-one], IC50 0.11 µM. Against it:
- CO[C@]1(c2ccc(Cl)cc2)c2c(F)cc(C(C)(O)C3CN(C(=O)N(C)C)C3)cc2C(=O)N1Cc1ccc(C#N)cn1 (stereo partly drawn) [Example 393, 3-{1-[(1R)-1-(4-chlorophenyl)-2-[(5-cyanopyridin-2-yl)methyl]-7-fluoro-1-methoxy-3-oxo-2,3-dihydro-1H-isoindol-5-yl]-1-hydroxyethyl}-N,N-dimethylazetidine-1-carboxamide] — 7.2-fold higher, 0.79 µM
- O=C1c2cc(C(O)C3CCS(=O)(=O)CC3)cc(F)c2[C@](OCC2(O)CC2)(c2ccc(Cl)cc2)N1Cc1ncc(Cl)cn1 (stereo partly drawn) [Example 400, 4-{[(1R)-1-(4-chlorophenyl)-2-[(5-chloropyrimidin-2-yl)methyl]-7-fluoro-1-[(1-hydroxycyclopropyl)methoxy]-3-oxo-2,3-dihydro-1H-isoindol-5-yl](hydroxy)methyl}-1λ6-thiane-1,1-dione] — 10-fold higher, 1.1 µM

same assay, conditions: read-out: SJSA1 IC50 (μM) (Protocol B); SJSA-1, Protocol B

Point of comparison: CO[C@]1(c2ccc(Cl)cc2)c2c(F)cc(C(C)(O)C3CN(C(C)=O)C3)cc2C(=O)N1Cc1ccc(Cl)cn1 (stereo partly drawn) [Example 390, (3R)-6-[1-(1-acetylazetidin-3-yl)-1-hydroxyethyl]-3-(4-chlorophenyl)-2-[(5-chloropyridin-2-yl)methyl]-4-fluoro-3-methoxy-2,3-dihydro-1H-isoindol-1-one], IC50 0.63 µM. Against it:
- CO[C@]1(c2ccc(Cl)cc2)c2c(F)cc(C(C)(O)C3CN(C(C)=O)C3)cc2C(=O)N1Cc1ccc(Cl)cn1 (stereo partly drawn) [Example 389, (3R)-6-[1-(1-acetylazetidin-3-yl)-1-hydroxyethyl]-3-(4-chlorophenyl)-2-[(5-chloropyridin-2-yl)methyl]-4-fluoro-3-methoxy-2,3-dihydro-1H-isoindol-1-one] — 6.7-fold higher, 4.2 µM

same assay, conditions: read-out: SJSA1 IC50; Protocol B, SJSA-1

Point of comparison: [2H]C([2H])(O)C1(C([2H])([2H])O[C@]2(c3ccc(Cl)cc3)c3c(F)cc(C(O)(CC)c4cn(C)cn4)cc3C(=O)N2Cc2ccc(C#N)cn2)CC1 (stereo partly drawn) [Example 440, 6-{[(1R)-1-(4-chlorophenyl)-7-fluoro-1-({1-[hydroxy(^2H2)methyl]cyclopropyl}(^2H2)methoxy)-5-[1-hydroxy-1-(1-methyl-1H-imidazol-4-yl)propyl]-3-oxo-2,3-dihydro-1H-isoindol-2-yl]methyl}pyridine-3-carbonitrile], IC50 1.9 µM. Against it:
- CC(O)(c1cc(F)c2c(c1)C(=O)N(Cc1ncc(Cl)cn1)[C@@]2(O[C@H]1C[C@@H](O)C1)c1ccc(Cl)cc1)[C@H]1CC[C@H](O)CC1 (stereo partly shown) [Example 496] — within 1.5-fold, 1.8 µM
